A short description of data set [1]: In vitro cytotoxicity, MTT cell viability assay in HepG2 cells. The format is cell-based. To be noted: human, Cytotoxicity CC50. In short, it runs like this: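 HepG2 seeded overnight, then 7-day compound exposure (30 μM–1.0 nM, half-log steps), 37 °C. MTT 3-4 h, DMSO solubilization, A492. % of vehicle → CC50, 4-PL fit.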
The subject of data set [2] is HBV replication in HepAD38 cells. Description: Anti-HBV activity in HepAD38 cells, extracellular HBV DNA by QPCR. Type of data set: cell-based, HBV (genotype D, serotype ayw). Particulars: Hepatitis B virus, HePAD38, 168 h, read-out: Anti-HBV EC50, HepAD38 cells, extracellular HBV DNA by QPCR, 7 days of incubation. In short, it runs like this: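 Seven-day compound exposure (30 μM down to 10 nM, half-log steps) after tetracycline withdrawal induced HBV replication in HepAD38 cells. Extracellular viral DNA measured by QPCR (copies/mL via standard curve), normalised to DMSO wells; EC50 from 4-parameter non-linear regression.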

Regarding `Cc1cc(NC(=O)c2c(C)cn(C)c2C(F)(F)C(=O)NC(C)(C)C)ccc1F` [Example 114, 2-(2-(tert-butylamino)-1,1-difluoro-2-oxoethyl)-N-(4-fluoro-3-methylphenyl)-1,4-dimethyl-1H-pyrrole-3-carboxamide], the CC50 (commonly the concentration giving 50% cytotoxicity) at 7 days in data set [1] is above 30 µM. Further, the EC50 – broadly, the concentration at which the effect is half-maximal – in data set [2] is above 30 µM.

In data set [1], `Cc1cc(NC(=O)c2ccc(F)c(C(F)(F)C(=O)N3[C@H](C)CN(S(C)(=O)=O)C[C@@H]3C)c2)ccc1F` [Example 293, 3-(2-((2S,6R)-2,6-dimethyl-4-(methylsulfonyl)piperazin-1-yl)-1,1-difluoro-2-oxoethyl)-4-fluoro-N-(4-fluoro-3-methylphenyl)benzamide] yielded a CC50 at 7 days of 5 to 30 µM. Moreover, the half-maximal effective concentration (EC50) in data set [2] is below 5 µM.

In data set [1], `Cc1cc(NC(=O)c2ccn(C)c2C(F)(F)C(=O)NC(C)(C)CO)ccc1F` [Example 105, 2-(1,1-difluoro-2-((1-hydroxy-2-methylpropan-2-yl)amino)-2-oxoethyl)-N-(4-fluoro-3-methylphenyl)-1-methyl-1H-pyrrole-3-carboxamide] registered a half-maximal cytotoxic concentration (CC50) at 7 days above 30 µM. For the same molecule, the half-maximal effective concentration (EC50) in data set [2] was in the range of 5 to 30 µM.

Regarding `Cc1cc(NC(=O)c2ccc(F)c(C(F)(F)C(=O)N3[C@H](C)CN(S(=O)(=O)c4cccnc4)C[C@@H]3C)c2)ccc1F` [Example 290, 3-(2-((2S,6R)-2,6-dimethyl-4-(pyridin-3-ylsulfonyl)piperazin-1-yl)-1,1-difluoro-2-oxoethyl)-4-fluoro-N-(4-fluoro-3-methylphenyl)benzamide], the CC50 at 7 days in data set [1] fell in the range of 5 to 30 µM. Besides, the concentration for a half-maximal effect (EC50) in data set [2] is below 5 µM.

On to `Cc1cc(NC(=O)c2ccc(F)c(C(F)(F)C(=O)N3[C@@H]4CCC[C@H]3C[C@@H](NS(C)(=O)=O)C4)c2)ccc1F` [Example 336, 3-(1,1-difluoro-2-((1R,3r,5S)-3-(methylsulfonamido)-9-azabicyclo[3.3.1]nonan-9-yl)-2-oxoethyl)-4-fluoro-N-(4-fluoro-3-methylphenyl)benzamide], for which the half-maximal cytotoxic concentration (CC50) at 7 days in data set [1] is above 30 µM. In data set [2], the concentration giving a half-maximal response (EC50) is below 5 µM.

`Cc1cc(NC(=O)c2ccc(F)c(C(F)(F)C(=O)N3[C@H](C)CN(S(=O)(=O)C4CC4)C[C@@H]3C)c2)ccc1F` [Example 292, 3-(2-((2S,6R)-4-(cyclopropylsulfonyl)-2,6-dimethylpiperazin-1-yl)-1,1-difluoro-2-oxoethyl)-4-fluoro-N-(4-fluoro-3-methylphenyl)benzamide] returned a CC50 at 7 days in data set [1] of 5 to 30 µM. Besides, in data set [2], the EC50 is below 5 µM.

`Cc1cc(NC(=O)c2ccc(F)c(C(F)(F)C(=O)N3CCC(O)C(C)(C)C3)c2)ccc1F` (centres unmarked) [Example 72] had a cytotoxic concentration (CC50) at 7 days in data set [1] of 5 to 30 µM. In addition, the EC50 in data set [2] was below 5 µM.

Turning to `Cc1cc(NC(=O)c2ccc(F)c(C(F)(F)C(=O)N3[C@H](C)CNC[C@@H]3C)c2)ccc1F` [Example 214, 3-(2-((2S,6R)-2,6-dimethylpiperazin-1-yl)-1,1-difluoro-2-oxoethyl)-4-fluoro-N-(4-fluoro-3-methylphenyl)benzamide], in data set [1], the CC50 at 7 days was 5 to 30 µM. Moreover, the concentration giving a half-maximal response (EC50) in data set [2] is below 5 µM.

`Cc1cc(NC(=O)c2ccc(F)c(C(F)(F)C(=O)N3C[C@@H](C)N[C@@H](C)C3)c2)ccc1F` [Example 296, 3-(2-((3R,5S)-3,5-dimethylpiperazin-1-yl)-1,1-difluoro-2-oxoethyl)-4-fluoro-N-(4-fluoro-3-methylphenyl)benzamide] displayed a CC50 at 7 days in data set [1] of 5 to 30 µM. For the same molecule, in data set [2], the EC50 is below 5 µM.

On to `Cc1cc(NC(=O)c2ccc(F)c(C(F)(F)C(=O)N3CCC(C)(O)CC3)c2)ccc1F` [Example 70, 3-(1,1-difluoro-2-(4-hydroxy-4-methylpiperidin-1-yl)-2-oxoethyl)-4-fluoro-N-(4-fluoro-3-methylphenyl)benzamide], for which the cytotoxic concentration (CC50) at 7 days in data set [1] fell in the range of 5 to 30 µM. Moreover, the EC50 in data set [2] is below 5 µM.

Turning to `Cc1cc(NC(=O)c2ccc(F)c(C(F)(F)C(=O)N3CCC(N)C(C)(C)C3)n2)ccc1F` (centres unmarked) [Example 304, 6-(2-(4-amino-3,3-dimethylpiperidin-1-yl)-1,1-difluoro-2-oxoethyl)-5-fluoro-N-(4-fluoro-3-methylphenyl)picolinamide], the CC50 at 7 days in data set [1] lay within 5 to 30 µM. For the same molecule, the concentration for a half-maximal effect (EC50) in data set [2] was below 5 µM.

For the molecule `Cc1cc(NC(=O)c2ccc(F)c(C(F)(F)C(=O)N3[C@@H]4CC[C@H]3CC(O)(CC(N)=O)C4)c2)ccc1F` (stereo partly drawn) [Example 241, 3-(2-((1R,5S)-3-(2-amino-2-oxoethyl)-3-hydroxy-8-azabicyclo[3.2.1]octan-8-yl)-1,1-difluoro-2-oxoethyl)-4-fluoro-N-(4-fluoro-3-methylphenyl)benzamide], the CC50 at 7 days in data set [1] was in the range of 5 to 30 µM. For the same molecule, the EC50 in data set [2] is below 5 µM.

As to `Cc1cc(NC(=O)c2c(C)c(C(F)(F)C(=O)NC(C)(C)C)n(C)c2C)ccc1F` [Example 107, 5-(2-(tert-butylamino)-1,1-difluoro-2-oxoethyl)-N-(4-fluoro-3-methylphenyl)-1,2,4-trimethyl-1H-pyrrole-3-carboxamide], in data set [1], the 50% cytotoxic concentration (CC50) at 7 days was above 30 µM. The 50% effective concentration (EC50) in data set [2] was below 5 µM.

For `Cc1cc(NC(=O)c2ccc(F)c(C(F)(F)C(=O)N3[C@@H]4COC[C@H]3C[C@H](NS(C)(=O)=O)C4)c2)ccc1F` [Example 306, 3-(1,1-difluoro-2-((1R,5S,7r)-7-(methylsulfonamido)-3-oxa-9-azabicyclo[3.3.1]nonan-9-yl)-2-oxoethyl)-4-fluoro-N-(4-fluoro-3-methylphenyl)benzamide], in data set [1], the CC50 at 7 days was in the range of 5 to 30 µM. Also, the EC50 in data set [2] is below 5 µM.

On to `Cc1cc(NC(=O)c2ccc(F)c(C(F)(F)C(=O)N3C4CC[C@@H]3C[C@H](NS(C)(=O)=O)C4)c2)ccc1F` [Example 262, 3-(1,1-difluoro-2-((1R,3r,5S)-3-(methylsulfonamido)-8-azabicyclo[3.2.1]octan-8-yl)-2-oxoethyl)-4-fluoro-N-(4-fluoro-3-methylphenyl)benzamide], for which the CC50 at 7 days in data set [1] is 5 to 30 µM. Moreover, in data set [2], the concentration for a half-maximal effect (EC50) is below 5 µM.

Regarding `Cc1cc(NC(=O)c2ccc(F)c(C(F)(F)C(=O)NCc3nccs3)c2)ccc1F` [Example 68, 3-(1,1-difluoro-2-oxo-2-((thiazol-2-ylmethyl)amino)ethyl)-4-fluoro-N-(4-fluoro-3-methylphenyl)benzamide], in data set [1], the CC50 at 7 days lay within 5 to 30 µM. In addition, the EC50 in data set [2] was below 5 µM.

Consider `NC(=O)c1cc(NC(=O)c2ccc(Cl)c(C(F)(F)C(=O)N3CCC(O)CC3)c2)ccc1F` [Example 60, N-(3-carbamoyl-4-fluorophenyl)-4-chloro-3-(1,1-difluoro-2-(4-hydroxypiperidin-1-yl)-2-oxoethyl)benzamide], for which the CC50 at 7 days in data set [1] is above 30 µM. In addition, the EC50 in data set [2] was 5 to 30 µM.

`Cc1cc(NC(=O)c2cccc(C(F)(F)C(=O)N3CCC(O)CC3)c2F)ccc1F` [Example 92, 3-(1,1-difluoro-2-(4-hydroxypiperidin-1-yl)-2-oxoethyl)-2-fluoro-N-(4-fluoro-3-methylphenyl)benzamide] yielded a CC50 at 7 days in data set [1] of 5 to 30 µM. Moreover, the EC50 in data set [2] is below 5 µM.

With `Cc1cc(NC(=O)c2ccc(F)c(C(F)(F)C(=O)N3[C@@H]4CC[C@H]3C[C@H](O)C4)c2)cc(F)n1` [Example 223, 3-(1,1-difluoro-2-((1R,3s,5S)-3-hydroxy-8-azabicyclo[3.2.1]octan-8-yl)-2-oxoethyl)-4-fluoro-N-(2-fluoro-6-methylpyridin-4-yl)benzamide], in data set [1], the CC50 at 7 days was below 5 µM. Besides, in data set [2], the concentration giving a half-maximal response (EC50) was below 5 µM.

Regarding `Cc1cc(NC(=O)c2ccc(F)c(C(F)(F)C(=O)N3CCc4cn[nH]c4C3)c2)ccc1F` [Example 76, 3-(1,1-difluoro-2-oxo-2-(1,4,5,7-tetrahydro-6H-pyrazolo[3,4-c]pyridin-6-yl)ethyl)-4-fluoro-N-(4-fluoro-3-methylphenyl)benzamide], the 50% cytotoxic concentration (CC50) at 7 days in data set [1] lay in the range of 5 to 30 µM. Further, the EC50 in data set [2] is below 5 µM.

In turn, `O=C(Nc1ccnc(Cl)c1)c1ccc(F)c(C(F)(F)C(=O)N2CCC(O)(CO)CC2)c1` [Example 198, N-(2-chloropyridin-4-yl)-3-(1,1-difluoro-2-(4-hydroxy-4-(hydroxymethyl)piperidin-1-yl)-2-oxoethyl)-4-fluorobenzamide] gave a CC50 at 7 days in data set [1] of 5 to 30 µM. Besides, the concentration giving a half-maximal response (EC50) in data set [2] is below 5 µM.

In data set [1], `Cc1cc(NC(=O)c2ccc([N+](=O)[O-])c(C(F)(F)C(=O)N3CCC(O)CC3)c2)ccc1F` [Example 298, 3-(1,1-difluoro-2-(4-hydroxypiperidin-1-yl)-2-oxoethyl)-N-(4-fluoro-3-methylphenyl)-4-nitrobenzamide] showed a half-maximal cytotoxic concentration (CC50) at 7 days of 5 to 30 µM. The half-maximal effective concentration (EC50) in data set [2] is below 5 µM.

In data set [1], `Cc1cc(NC(=O)c2ccc(F)c(C(F)(F)C(=O)N3[C@@H]4CC[C@H]3CC(O)(CC#N)C4)c2)ccc1F` (stereo partly drawn) [Example 240, 3-(2-((1R,5S)-3-(cyanomethyl)-3-hydroxy-8-azabicyclo[3.2.1]octan-8-yl)-1,1-difluoro-2-oxoethyl)-4-fluoro-N-(4-fluoro-3-methylphenyl)benzamide] displayed a 50% cytotoxic concentration (CC50) at 7 days below 5 µM. In data set [2], the concentration giving a half-maximal response (EC50) was below 5 µM.

With `Cc1cc(NC(=O)c2ccc(F)c(C(F)(F)C(=O)N3CCC(NC(=O)C4CCNC(=O)C4)CC3)c2)ccc1F` (centres unmarked) [Example 233, N-(1-(2,2-difluoro-2-(2-fluoro-5-((4-fluoro-3-methylphenyl)carbamoyl)phenyl)acetyl)piperidin-4-yl)-2-oxopiperidine-4-carboxamide], in data set [1], the half-maximal cytotoxic concentration (CC50) at 7 days fell in the range of 5 to 30 µM. For the same molecule, the concentration giving a half-maximal response (EC50) in data set [2] was below 5 µM.

For `Cc1cc(NC(=O)c2ccc(F)c(C(F)(F)C(=O)N3CCC(O)(C(N)=O)CC3)c2)ccc1F` [Example 212, 1-(2,2-difluoro-2-(2-fluoro-5-((4-fluoro-3-methylphenyl)carbamoyl)phenyl)acetyl)-4-hydroxypiperidine-4-carboxamide], the CC50 at 7 days in data set [1] is 5 to 30 µM. In addition, the EC50 in data set [2] is below 5 µM.

These data come from patent publication US11247965B2 (VenatoRx Pharmaceuticals, Inc., priority 2017, dated 2022).
